The supplement of paper PMC10307832

Assays:
Assay in all cases: relative viability (nuclei count vs DMSO), 5 days (fraction); higher = more cells survive
[1] = test system: NCI-H2347
Outline: (§1)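 Lung cancer cell lines in 1536-well plates got either a single drug or a fixed anchor-drug dose together with five library-drug doses (not always all listed) in √10 steps, by pin tool, on the day after seeding. Nuclei were counted after 5 days, and relative viability is the treated-to-vehicle ratio of nuclei counts. Values are medians of duplicate plates.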

[2] = test system: NCI-H650
Outline: as §1

[3] = test system: COR-L23
Outline: as §1

[4] = test system: NCI-H727
Outline: as §1

[5] = test system: PC-14
Outline: as §1

[6] = test system: NCI-H838
Outline: as §1

[7] = test system: NCI-H1650
Outline: as §1

[8] = test system: LU99A
Outline: as §1

[9] = test system: H3255
Outline: as §1

[10] = test system: A-427
Outline: as §1

[11] = test system: NCI-H1793
Outline: as §1

[12] = test system: LCLC-103H
Outline: as §1

[13] = test system: LK-2
Outline: as §1

[14] = test system: NCI-H1944
Outline: as §1

[15] = test system: NCI-H460
Outline: as §1

[16] = test system: LCLC-97TM1
Outline: as §1

[17] = test system: 201T
Outline: as §1

[18] = test system: HCC-44
Outline: as §1

[19] = test system: NCI-H23
Outline: as §1

[20] = test system: PC-3 [JPC-3]
Outline: as §1

[21] = test system: SW 900
Outline: as §1

[22] = test system: SW 1573
Outline: as §1

SMILES: C=C1C(=O)O[C@@H](CCCCCCCC)[C@@H]1C(=O)O [C-75] + Cc1cc(Nc2cc(N3CCN(C)CC3)nc(Sc3ccc(NC(=O)C4CC4)cc3)n2)n[nH]1 [Tozasertib] (partner 0.1 µM)
- relative viability ([1]; first compound 0.08 µM): 0.558
- relative viability ([1]; first compound 0.253 µM): 0.74
- relative viability ([1]; first compound 0.8 µM): 0.517
- relative viability ([1]; first compound 8 µM): 0.534
- relative viability ([2]; first compound 0.08 µM): 0.759
- relative viability ([2]; first compound 0.253 µM): 0.651
- relative viability ([2]; first compound 0.8 µM): 0.718
- relative viability ([2]; first compound 2.53 µM): 0.616
- relative viability ([2]; first compound 8 µM): 0.62
- relative viability ([3]; first compound 0.08 µM): 0.232
- relative viability ([3]; first compound 0.253 µM): 0.267
- relative viability ([3]; first compound 0.8 µM): 0.209
- relative viability ([3]; first compound 2.53 µM): 0.172
- relative viability ([3]; first compound 8 µM): 0.179
- relative viability ([4]; first compound 0.08 µM): 0.623
- relative viability ([4]; first compound 0.253 µM): 0.623
- relative viability ([4]; first compound 0.8 µM): 0.559
- relative viability ([4]; first compound 8 µM): 0.674
- relative viability ([5]; first compound 0.08 µM): 0.597
- relative viability ([5]; first compound 0.253 µM): 0.479
- relative viability ([5]; first compound 0.8 µM): 0.548
- relative viability ([5]; first compound 2.53 µM): 0.544
- relative viability ([5]; first compound 8 µM): 0.578
- relative viability ([6]; first compound 0.08 µM): 0.311
- relative viability ([6]; first compound 0.8 µM): 0.229
- relative viability ([6]; first compound 2.53 µM): 0.293
- relative viability ([6]; first compound 8 µM): 0.266
- relative viability ([7]; first compound 0.08 µM): 0.413
- relative viability ([7]; first compound 0.253 µM): 0.647
- relative viability ([7]; first compound 2.53 µM): 0.422
- relative viability ([7]; first compound 8 µM): 0.38
- relative viability ([8]; first compound 0.08 µM): 0.272
- relative viability ([8]; first compound 0.253 µM): 0.251
- relative viability ([8]; first compound 0.8 µM): 0.253
- relative viability ([8]; first compound 2.53 µM): 0.283
- relative viability ([8]; first compound 8 µM): 0.288
- relative viability ([9]; first compound 0.08 µM): 0.609
- relative viability ([9]; first compound 0.253 µM): 0.856
- relative viability ([9]; first compound 0.8 µM): 0.505
- relative viability ([9]; first compound 2.53 µM): 0.701
- relative viability ([9]; first compound 8 µM): 0.751
- relative viability ([10]; first compound 0.08 µM): 0.219
- relative viability ([10]; first compound 0.253 µM): 0.264
- relative viability ([10]; first compound 0.8 µM): 0.221
- relative viability ([10]; first compound 2.53 µM): 0.199
- relative viability ([10]; first compound 8 µM): 0.175
- relative viability ([11]; first compound 0.08 µM): 0.306
- relative viability ([11]; first compound 0.253 µM): 0.315
- relative viability ([11]; first compound 0.8 µM): 0.344
- relative viability ([11]; first compound 2.53 µM): 0.258
- relative viability ([11]; first compound 8 µM): 0.335
- relative viability ([12]; first compound 0.08 µM): 0.597
- relative viability ([12]; first compound 0.253 µM): 0.543
- relative viability ([12]; first compound 0.8 µM): 0.428
- relative viability ([12]; first compound 2.53 µM): 0.514
- relative viability ([12]; first compound 8 µM): 0.406
- relative viability ([13]; first compound 0.08 µM): 0.214
- relative viability ([13]; first compound 0.253 µM): 0.157
- relative viability ([13]; first compound 0.8 µM): 0.195
- relative viability ([13]; first compound 2.53 µM): 0.155
- relative viability ([13]; first compound 8 µM): 0.19
- relative viability ([14]; first compound 0.08 µM): 0.256
- relative viability ([14]; first compound 0.253 µM): 0.235
- relative viability ([14]; first compound 0.8 µM): 0.243
- relative viability ([14]; first compound 8 µM): 0.246
- relative viability ([15]; first compound 0.08 µM): 0.405
- relative viability ([15]; first compound 0.253 µM): 0.798
- relative viability ([15]; first compound 0.8 µM): 0.391
- relative viability ([15]; first compound 2.53 µM): 0.657
- relative viability ([15]; first compound 8 µM): 0.449
- relative viability ([16]; first compound 0.08 µM): 0.23
- relative viability ([16]; first compound 0.253 µM): 0.319
- relative viability ([16]; first compound 0.8 µM): 0.22
- relative viability ([16]; first compound 2.53 µM): 0.16
- relative viability ([16]; first compound 8 µM): 0.187
- relative viability ([17]; first compound 0.08 µM): 0.985
- relative viability ([17]; first compound 0.253 µM): 1.12
- relative viability ([17]; first compound 0.8 µM): 1.04
- relative viability ([17]; first compound 2.53 µM): 0.932
- relative viability ([17]; first compound 8 µM): 1.02
- relative viability ([18]; first compound 0.08 µM): 0.989
- relative viability ([18]; first compound 0.253 µM): 0.942
- relative viability ([18]; first compound 0.8 µM): 0.9
- relative viability ([18]; first compound 2.53 µM): 0.878
- relative viability ([18]; first compound 8 µM): 0.714
- relative viability ([19]; first compound 0.08 µM): 0.36
- relative viability ([19]; first compound 0.253 µM): 0.57
- relative viability ([19]; first compound 0.8 µM): 0.417
- relative viability ([19]; first compound 2.53 µM): 0.339
- relative viability ([19]; first compound 8 µM): 0.254
- relative viability ([20]; first compound 0.08 µM): 0.902
- relative viability ([20]; first compound 0.253 µM): 0.921
- relative viability ([20]; first compound 0.8 µM): 0.896
- relative viability ([20]; first compound 2.53 µM): 0.858
- relative viability ([20]; first compound 8 µM): 0.992
- relative viability ([21]; first compound 0.08 µM): 0.595
- relative viability ([21]; first compound 0.253 µM): 0.919
- relative viability ([21]; first compound 0.8 µM): 0.571
- relative viability ([21]; first compound 2.53 µM): 0.704
- relative viability ([21]; first compound 8 µM): 0.506
- relative viability ([22]; first compound 0.08 µM): 0.268
- relative viability ([22]; first compound 0.253 µM): 0.161
- relative viability ([22]; first compound 0.8 µM): 0.189
- relative viability ([22]; first compound 2.53 µM): 0.215
- relative viability ([22]; first compound 8 µM): 0.184
